System: spleen lymphocytes of B2-haplotype chicken infected with ALV-J
Assay: IFN-γ ELISpot assay detecting immunogenicity of candidate peptides
Type: cell-based
Settings: peptide 10 μg/mL as stimulant, spleen lymphocytes of B2-haplotype chicken infected for 28 d; for IFN-γ ELISpot spots generated compared with the negative control group: 24-48 h; for IFN-γ ELISpot spots, significance versus negative control (immunogenic T cell epitope): P<0.05, three independent replications
Description: The B2-haplotype chicken infected for 28 d (day) in 2.1 is taken, and the spleen lymphocytes of the chicken are isolated according to the kit instructions of the chicken organ tissue mononuclear cell isolation solution, and an ELISpot assay is performed to detect the immunogenicity of candidate peptide epitopes. The specific steps are as follows:
(1) PVDF 96-well plate activation: 15 μL 35% ethanol is added to each well for reaction for less than 1 min, and then the wells are washed five times with sterile water.
(2) Antibody coating: the anti-chicken IFN-γ is diluted to 15 μg/mL, and 100 μL of that is added to each well, and the mixture is incubated at 4° C. overnight.
(3) Blocking: the coating solution is discarded, followed by washing 5 times with DPBS, and the plate is dried on the sterilized absorbent paper. RMPI 1640 medium containing 10% FBS is added to PVDF 96-well plate at 200 μL/well and the reaction is blocked at room temperature for 30 min.
(4) Stimulation: the blocking solution is discarded and 100 μL of prepared lymphocyte suspension at the concentration of 5*10^6 cells/mL is added to each well. At the same time, 50 μL diluted antigenic peptide is added to the experimental group at the final concentration of 10 μg/mL, PMA at the final concentration of 10 μg/mL is added to the positive control group, and no irritant is added to the negative control group. After all the samples are added, PVDF 96-well plate is placed in CO2 incubator at 37° C. for 24-48 h.
(5) Incubation of secondary antibody: after the culture, the cells are shaken off and the plate is washed five times with DPBS. Then 100 μL biotinylated secondary antibody with a concentration of 1 μg/mL is added to each well and the plate is incubated for 2 h at room temperature.
(6) HRP incubation: the secondary antibody solution is discarded and washed with DPBS for 5 times. Then 100 μL streptavidin-labeled HRP is added to the well and incubated at room temperature for 1 h.
(7) Color development: the HRP incubation solution is discarded and the plate is washed with DPBS for 5 times. Then 100 μL TMB color-developing substrate is added to each well followed by incubation at room temperature or 37° C. for 15-30 min. When obvious spots appeared in the positive control group, the color-developing solution could be discarded. the color development is stopped with pure water and the plate is read after air drying.

Sequence: SALQAFREV (ALV-J-61)
- IFN-γ ELISpot spots generated compared with the negative control group: could generate spots
- IFN-γ ELISpot spots, significance versus negative control (immunogenic T cell epitope): significantly produce more spots

Sequence: TVDTASSAI (ALV-J-52)
- IFN-γ ELISpot spots generated compared with the negative control group: could generate spots
- IFN-γ ELISpot spots, significance versus negative control (immunogenic T cell epitope): significantly produce more spots

Sequence: FVDFANRLI (ALV-J-59)
- IFN-γ ELISpot spots generated compared with the negative control group: could generate spots
- IFN-γ ELISpot spots, significance versus negative control (immunogenic T cell epitope): significantly produce more spots

Reference: patent US20230227505A1, “IDENTIFICATION AND APPLICATION OF ALV-J MHC-B2 R[…] PEPTIDE” (South China Agricultural University, priority 2022, published 2023)
